Source: US11918645B2, “Vaccines against hepatitis B virus” (priority 2012, dated 2024)
Entries after “also recorded” stand apart in the source; their conditions may differ.

Legend:
[1] = system: HLA-DP4 (α1*01:03;β1*04:01); test: ProImmune REVEAL MHC class II binding assay of long peptides; set-up: species or system human; conditions: percentage of the signal of the positive control peptide; positive binding score >=15%
[2] = system: PBMC from chronic HBV-infected subjects; test: IFNγ ELISpot of PBMC restimulated with individual unconjugated HBV long peptides (Example 5); format: cell-based, human; conditions: for T cell responses (IFNγ ELISpot), level and frequency of responders: HBeAg-negative inactive carriers and HBeAg-negative treated subjects, 5 μg/mL, 18 h, FIGS. 9 and 10; for T cell responses (IFNγ ELISpot) grouped by infecting HBV genotype: genotypes A, B, C & D, FIG. 11; for T cell responses (IFNγ ELISpot) grouped by ethnic background: three ethnic groups, FIG. 12
Method: One vial of PBMC from each subject (containing 1×10^7 cells) was thawed and lymphocyte numbers were determined using a Scepter™ automated handheld cell counter. PBMC were cultured in 2 mL culture medium (CM: RPMI-1640 Glutamax supplemented with 5% human AB serum) in 24 well cell culture plates at a concentration of 1×10^6 cells/mL for a total of 11 days. Cells were stimulated with a mixture of the nine HBV-derived long peptides described in Example 3.
Each peptide was used at a final concentration of 1 μg/peptide/mL. On Day 4, IL-2 and IL-15 were added to the cultures to final concentrations of 10 IU/mL and 10 ng/mL respectively. On Day 10, cells were washed twice in CM and cultured with 10 IU/mL IL-2 for 1 additional day. On Day 11, cells were washed twice in CM, counted and incorporated in a human IFNγ (interferon-gamma) ELISpot assay or intracellular cytokine staining.
Cells from short term cultures were plated in triplicate wells at 5×10^4 PBMC/well. Final antigen concentrations used were: 5 μg/mL for each individual peptides; PHA positive control: 1 μg/mL.

[3] = system: HLA-DR1 (α1*01:01;β1*01:01); test: ProImmune REVEAL MHC class II binding assay of long peptides; set-up: species or system human; conditions: percentage of the signal of the positive control peptide; positive binding score >=15%
Description: (§1) The highly frequent HLA class II alleles HLA-DR1 (α1*01:01;β1*01:01), HLA-DR15 (α1*01:01;β1*15:01), HLA-DR3 (α1*01:01;β1*03:01), HLA-DR4 (α1*01:01;β1*04:01), HLA-DR11 (α1*01:01;β1*11:01), HLA-DR13 (α1*01:01;β1*13:01), and HLA-DR7 (α1*01:01;β1*07:01) were selected. Each peptide was given a score relative to the positive control peptide, which is a known T-cell epitope. The score of the test peptide is reported quantitatively as a percentage of the signal generated by the positive control peptide, and the peptide is indicated as having a putative pass or fail result. Good binders are considered to be those peptides with scores >=15% of the positive control as defined by Proimmune.

[4] = system: HLA-DR3 (α1*01:01;β1*03:0); test: as above; set-up: species or system human; conditions: percentage of the signal of the positive control peptide; positive binding score >=15%
Description: as §1

BALB/c mice = test: Immunogenicity in mice, IFNγ ELISpot of splenocytes, FP02.1 vs NP02.1 (Example 6); format: in vivo; conditions: mice immunised with FP02.1 or NP02.1, restimulation 5 μg/mL/peptide, FIG. 15
Method: The immunogenicity in mice of FP02.1 (containing nine fluorocarbon-conjugated peptides) was compared to NP02.1 (containing nine equivalent unconjugated peptides).
Alternatively, splenocytes were stimulated in vitro with 5 μg/mL/peptide of nine individual peptides for 18 hours in an ELISpot assay. The number of IFNγ+ spot forming cells (SFC) was counted. Plates then were washed with PBS, incubated with an IFNγ detection peroxidase-labelled antibody, followed by a substrate, according to the manufacturer's instructions.

[5] = system: HLA-DR11 (α1*01:01;β1*11:01); test: ProImmune REVEAL MHC class II binding assay of long peptides; set-up: species or system human; conditions: percentage of the signal of the positive control peptide; positive binding score >=15%
Description: The highly frequent HLA class II alleles HLA-DR1 (α1*01:01;β1*01:01), HLA-DR15 (α1*01:01;β1*15:01), HLA-DR3 (α1*01:01;β1*03:01), HLA-DR4 (α1*01:01;β1*04:01), HLA-DR11 (α1*01:01;β1*11:01), HLA-DR13 (α1*01:01;β1*13:01), and HLA-DR7 (α1*01:01;β1*07:01) were selected. Each peptide was given a score relative to the positive control peptide, which is a known T-cell epitope.

HLA class II alleles = test: ProImmune REVEAL MHC class II binding assay, summary over the seven alleles; set-up: species or system human; conditions: number of class II alleles for which positive binding (score >=15%) was detected
Description: as §1

Substance	binding score, HLA-DP4 (α1*01:03;β1*04:01) [1] [%]	T cell responses (IFNγ ELISpot), level and frequency of responders [2]	T cell responses (IFNγ ELISpot) grouped by infecting HBV genotype [2]	T cell responses (IFNγ ELISpot) grouped by ethnic background [2]	binding score, HLA-DR1 (α1*01:01;β1*01:01) [3] [%]	binding score, HLA-DR3 (α1*01:01;β1*03:0) [4] [%]	IFNγ response of splenocytes to each individual peptide component (BALB/c mice)	IFNγ response of splenocytes to each individual peptide component (BALB/c mice; listed as P113)	binding score, HLA-DR11 (α1*01:01;β1*11:01) [5] [%]	Number of allele (a) (HLA class II alleles)
NP113: unconjugated HBV long peptide, polymerase region 96-130 of virtual HBV proteome (VGPLTVNEKRRLKLIMPARFYPNVTKYLPLDKGIK; HBV CONSENSUS SEQUENCE)	33.51	highest level of responses in both patient populations and in the highest proportion of subjects	highest responses across all four genotypes A, B, C & D; also recorded: highest T cell response across all four genotypes compared to all other peptides	highest responses across all three ethnic groups	54.44	49.98	immune responses were dominated by four out of the 9 peptides contained in the vaccine	only observed with the formulation containing the fluorocarbon-conjugated peptides	–	–
NP151: unconjugated HBV long peptide, polymerase region 134-168 (PEHVVNHYFQTRHYLHTLWKAGILYKRETTRSASF; HBV CONSENSUS SEQUENCE)	74.36	highest level of responses in both patient populations and in the highest proportion of subjects	highest responses across all four genotypes A, B, C & D	highest responses across all three ethnic groups	14.59	0.00	immune responses were dominated by four out of the 9 peptides contained in the vaccine	–	–	–
NP753(K): unconjugated HBV long peptide, core KK + 738-770 (S to T at 743) + KKK (KKKEFGATVELLSFLPSDFFPSVRDLLDTASALYRKKK; HBV CONSENSUS SEQUENCE)	0.65	highest level of responses in both patient populations and in the highest proportion of subjects	highest responses across all four genotypes A, B, C & D	highest responses across all three ethnic groups	0.11	0.00	–	–	1.51	0
